Results as given in patent US4138488A, “Diphenylmethyl picolinic acid derivatives and their use as anti-acne agents” (Schering Corporation, priority 1977, dated 1979).

Assay: In vivo topical activity

Row | Compound | in vivo topical activity
1 | Oc1c(Cl)cc(Cl)c(Cl)c1Cc1c(O)c(Cl)cc(Cl)c1Cl [hexachlorophene] | neither hexachlorophene nor tetracycline exhibit substantial in vivo topical activity
2 | CN(C)C1C(=O)C(C(N)=O)=C(O)C2(O)C(=O)C3=C(O)c4c(O)cccc4C(C)(O)C3CC12 (centres unmarked) [tetracycline] | neither hexachlorophene nor tetracycline exhibit substantial in vivo topical activity
